Values after ≈ are worked out from the molar mass of the structure shown.
What was measured:
[1] = system: P. aeruginosa ATCC 27853 (APAE001); assay: MIC assay, CLSI broth microdilution, APAE001; type: cell-based; settings: Pseudomonas aeruginosa; APAE001 is ATCC27853; Mueller Hinton Broth, 35 C, 20 hours
Experimental: (§1) Minimum inhibitory concentrations (MIC) were determined by reference Clinical and Laboratory Standards Institute (CLSI) broth microdilution methods per M7-A7 [2006]. Quality control ranges utilizing E. coli ATCC 25922, P. aeruginosa ATCC 27853 and S. aureus ATCC 29213, and interpretive criteria for comparator agents were as published in CLSI M100-S17 [2007]. Briefly, serial two-fold dilutions of the test compounds were prepared at 2× concentration in Mueller Hinton Broth. The compound dilutions were mixed in 96-well assay plates in a 1:1 ratio with bacterial inoculum. The inoculum was prepared by suspension of a colony from an agar plate that was prepared the previous day. Bacteria were suspended in sterile saline and added to each assay plate to obtain a final concentration of 5×10^5 CFU/mL. The plates were incubated at 35 C. for 20 hours in ambient air.

[2] = system: E. coli ATCC 25922 (AECO001); assay: MIC assay, CLSI broth microdilution, AECO001; type: cell-based; settings: Escherichia coli; AECO001 is ATCC25922; Mueller Hinton Broth, 35 C, 20 hours
Experimental: as §1

NCC[C@H](O)C(=O)N[C@@H]1C[C@H](N)[C@@H](O[C@H]2O[C@H](CNCCO)C=C[C@H]2N)[C@H](O[C@@H]2O[C@H](CO)[C@@H](O[C@H]3O[C@@H](CN)[C@@H](O)[C@H](O)[C@H]3N)[C@H]2O)[C@H]1O [1/20]
MIC [1]: 1 to 16 µg/mL (≈ 1.38 to 22 µM) | MIC [2]: ≤ 1 µg/mL
